The results in this text go back to PubChem BioAssay AID330 (DTP/NCI, 2004).

This experiment concerns P388 leukemia ip, CD2F1 mice, survival T/C. The experiment can be described thus: NCI In Vivo Anticancer Drug Screen. Data for tumor model P388 Leukemia (intraperitoneal) in CD2F1 (CDF1) mice. To be noted: endpoint: median survival time, higher = longer survival. In a few lines: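 Mice carrying the transplanted tumor received test compound or vehicle. Survival was recorded in each group, and the value is the treated-group measurement divided by that of the vehicle-treated control group.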

Setting [1] is: dose: 50.0 mg/kg/injection, schedule: Q01DX009 (ip), vehicle: saline with Tween-80.
The mark [2] stands for this setting: dose: 100.0 mg/kg/injection, schedule: Q01DX009 (ip), vehicle: saline with Tween-80.
The mark [3] stands for this setting: dose: 200.0 mg/kg/injection, schedule: Q01DX009 (ip), vehicle: saline with Tween-80.
Setting [4] is: dose: 60.0 mg/kg/injection, schedule: Q01DX005 (ip), vehicle: Klucel (hydroxypropylcellulose) (HPC).
Where [5] appears, read: dose: 120.0 mg/kg/injection, schedule: Q01DX005 (ip), vehicle: Klucel (hydroxypropylcellulose) (HPC).
The mark [6] stands for this setting: dose: 240.0 mg/kg/injection, schedule: Q01DX005 (ip), vehicle: Klucel (hydroxypropylcellulose) (HPC).
Setting [7] is: dose: 25.0 mg/kg/injection, schedule: Q01DX005 (ip), vehicle: saline with Tween-80.
The mark [8] stands for this setting: dose: 50.0 mg/kg/injection, schedule: Q01DX005 (ip), vehicle: saline with Tween-80.
Setting [9] is: dose: 100.0 mg/kg/injection, schedule: Q01DX005 (ip), vehicle: saline with Tween-80.
Where [10] appears, read: dose: 200.0 mg/kg/injection, schedule: Q01DX005 (ip), vehicle: saline with Tween-80.
[11] abbreviates: dose: 60.0 mg/kg/injection, schedule: Q01DX005 (ip), vehicle: saline with Tween-80.
The mark [12] stands for this setting: dose: 120.0 mg/kg/injection, schedule: Q01DX005 (ip), vehicle: saline with Tween-80.
[13] abbreviates: dose: 25.0 mg/kg/injection, schedule: Q01DX009 (ip), vehicle: saline with Tween-80.
The mark [14] stands for this setting: dose: 12.5 mg/kg/injection, schedule: Q01DX009 (ip), vehicle: saline.
Where [15] appears, read: dose: 25.0 mg/kg/injection, schedule: Q01DX009 (ip), vehicle: saline.
Where [16] appears, read: dose: 50.0 mg/kg/injection, schedule: Q01DX009 (ip), vehicle: saline.

Molecules are shown by their SMILES. Several values for one entry are separate records, joined by “and”; a condition that tells them apart may be missing. Equal entries are not always repeated. Toxic doses and inconclusive results are not listed.

For the compound `C=CCSc1nc(N)nc2nc[nH]c12`, the T/C under setting [1] is 100 % of control, the T/C under setting [2] is 100 % of control and the T/C under setting [3] is 90 % of control.
Take `CCOC(=O)Cn1/c(=N/N=C(\C)c2ccc([N+](=O)[O-])o2)sc2cc(Cl)ccc21`: the T/C under setting [4] is 102 % of control; the T/C under setting [5] is 106 % of control and 96 % of control; the T/C under setting [6] was 101 % of control and 91 % of control.
As for `CCOC(=O)C(NC(C)=O)(C(=O)OCC)c1ccc([N+](=O)[O-])cn1`, the T/C is, setting by setting: (dose: 25.0 mg/kg/injection, schedule: Q01DX009 (ip), vehicle: other) 92 % of control; (dose: 50.0 mg/kg/injection, schedule: Q01DX009 (ip), vehicle: other) 90 % of control; (dose: 100.0 mg/kg/injection, schedule: Q01DX009 (ip), vehicle: other) 95 % of control; (dose: 200.0 mg/kg/injection, schedule: Q01DX009 (ip), vehicle: other) 95 % of control; (dose: 400.0 mg/kg/injection, schedule: Q01DX009 (ip), vehicle: other) 102 % of control.
On to `COc1ccc(NC(=O)Nc2ccc(-c3ccc(NC(=O)Nc4ccc(OC)cc4)c(C)c3)cc2C)cc1`, for which the T/C by setting is: under setting [7], 100 % of control; under setting [8], 87 % of control and 94 % of control; under setting [9], 91 % of control; under setting [10], 90 % of control.
Consider `CCN(CC)CCCCNC(=O)c1noc2cc([N+](=O)[O-])ccc12`, for which the T/C reads like this: (dose: 3.12 mg/kg/injection, schedule: Q01DX005 (ip), vehicle: Klucel (hydroxypropylcellulose) (HPC)) 100 % of control; (dose: 6.25 mg/kg/injection, schedule: Q01DX005 (ip), vehicle: Klucel (hydroxypropylcellulose) (HPC)) 99 % of control and 105 % of control; (dose: 12.5 mg/kg/injection, schedule: Q01DX005 (ip), vehicle: Klucel (hydroxypropylcellulose) (HPC)) 103 % of control and 97 % of control; (dose: 25.0 mg/kg/injection, schedule: Q01DX005 (ip), vehicle: Klucel (hydroxypropylcellulose) (HPC)) 103 % of control and 122 % of control and 96 % of control.
On to `CCC(c1cccc(O)c1)C(CC)c1cccc(O)c1` (centres undefined), for which the T/C by setting is: (dose: 50.0 mg/kg/injection, schedule: Q01DX005 (ip), vehicle: Klucel (hydroxypropylcellulose) (HPC)) 102 % of control; (dose: 100.0 mg/kg/injection, schedule: Q01DX005 (ip), vehicle: Klucel (hydroxypropylcellulose) (HPC)) 102 % of control; (dose: 200.0 mg/kg/injection, schedule: Q01DX005 (ip), vehicle: Klucel (hydroxypropylcellulose) (HPC)) 103 % of control.
With `Cc1cc(C)nc(/C=C(\NC(=O)c2ccccc2)c2ccccc2)c1`, the T/C under setting [11] is 108 % of control; the T/C under setting [12] was 102 % of control; the T/C (dose: 240.0 mg/kg/injection, schedule: Q01DX005 (ip), vehicle: saline with Tween-80) is 101 % of control.
`Cc1ccc(NC(=O)NC(=O)CCl)cc1`: the T/C was 105 % of control (dose: 6.25 mg/kg/injection, schedule: Q01DX009 (ip), vehicle: Klucel (hydroxypropylcellulose) (HPC)); 99 % of control (dose: 12.5 mg/kg/injection, schedule: Q01DX009 (ip), vehicle: Klucel (hydroxypropylcellulose) (HPC)); 101 % of control and 105 % of control (dose: 25.0 mg/kg/injection, schedule: Q01DX009 (ip), vehicle: Klucel (hydroxypropylcellulose) (HPC)); 92 % of control under setting [13]; 104 % of control and 108 % of control and 113 % of control (dose: 50.0 mg/kg/injection, schedule: Q01DX009 (ip), vehicle: Klucel (hydroxypropylcellulose) (HPC)); 123 % of control (dose: 100.0 mg/kg/injection, schedule: Q01DX009 (ip), vehicle: Klucel (hydroxypropylcellulose) (HPC)). For the same compound, the T/C under setting [2] is 106 % of control.
On to `BrC[P+](CBr)(CBr)CBr`, for which the T/C under setting [14] is 151 % of control; the T/C under setting [15] was 150 % of control; the T/C under setting [8] was 114 % of control and 117 % of control; the T/C under setting [1] is 151 % of control; the T/C under setting [16] is 163 % of control; the T/C under setting [9] is 123 % of control. For the same compound, the T/C under setting [2] is 157 % of control.
On to `CN(C)C(=S)S(C)(=O)=O`, for which the T/C is 107 % of control under setting [14]; 109 % of control under setting [15]; 103 % of control and 107 % of control under setting [16].
As to `CCC(=O)N1C(=O)C(C)C23c4ccccc4C(=O)N2CCCN13` (centres undefined), the T/C under setting [8] was 97 % of control, the T/C under setting [9] was 96 % of control and the T/C under setting [10] was 96 % of control.
Regarding `CC(C)N(CCNc1cccnc1[N+](=O)[O-])C(C)C`, the T/C was 115 % of control under setting [16]; 108 % of control (dose: 100.0 mg/kg/injection, schedule: Q01DX009 (ip), vehicle: saline); 117 % of control (dose: 200.0 mg/kg/injection, schedule: Q01DX009 (ip), vehicle: saline).
Turning to `C[C@H](C(O)CC(=O)C(C)(C)O)[C@H]1CC[C@@]2(C)[C@@H]3CC[C@H]4C(C)(C)[C@@H](OC5OC(COC6OC(CO)C(O)C(O)C6O)C(O)C(O)C5O)CC[C@]4(C)C3=CC[C@]12C` (some centres undefined), the T/C (dose: 9.25 mg/kg/injection, schedule: Q01DX005 (ip), vehicle: saline) is 100 % of control; the T/C (dose: 18.5 mg/kg/injection, schedule: Q01DX005 (ip), vehicle: saline) was 100 % of control; the T/C (dose: 37.0 mg/kg/injection, schedule: Q01DX005 (ip), vehicle: saline) is 112 % of control; the T/C (dose: 74.0 mg/kg/injection, schedule: Q01DX005 (ip), vehicle: saline) is 105 % of control.
Turning to `C=CC(C)(C)C12CC3C(=O)Nc4ccccc4C(=O)N3C1Nc1ccccc12` (centres undefined), the T/C (dose: 25.0 mg/kg/injection, schedule: Q01DX005 (ip), vehicle: distilled water + Tween-80 + alcohol) was 95 % of control; the T/C (dose: 50.0 mg/kg/injection, schedule: Q01DX005 (ip), vehicle: distilled water + Tween-80 + alcohol) is 97 % of control; the T/C (dose: 100.0 mg/kg/injection, schedule: Q01DX005 (ip), vehicle: distilled water + Tween-80 + alcohol) was 103 % of control; the T/C (dose: 200.0 mg/kg/injection, schedule: Q01DX005 (ip), vehicle: distilled water + Tween-80 + alcohol) was 98 % of control.
Consider `CCC=Nc1c(O)cc(-c2ccccc2)n(C)c1=O`, for which the T/C by setting is: under setting [11], 94 % of control; under setting [12], 100 % of control.
Take `NC(=O)C1C2C=CC(C2)C1C(N)=O` (centres undefined): the T/C runs as follows: under setting [4], 97 % of control; under setting [5], 103 % of control; under setting [6], 97 % of control.
Consider `O=C(O)CSC(=S)Nc1ccccn1`, for which the T/C is, setting by setting: under setting [1], 94 % of control; under setting [2], 90 % of control; under setting [3], 100 % of control.
For `CCCC(=O)OCC1OC(n2cnc3c(=S)nc(N)[nH]c32)C(OC(=O)CCC)C1OC(=O)CCC` (centres undefined), the T/C is 100 % of control (dose: 1.25 mg/kg/injection, schedule: Q04DX003 (ip), vehicle: saline with Tween-80); 104 % of control (dose: 2.5 mg/kg/injection, schedule: Q04DX003 (ip), vehicle: saline with Tween-80); 113 % of control (dose: 5.0 mg/kg/injection, schedule: Q04DX003 (ip), vehicle: saline with Tween-80); 155 % of control (dose: 10.0 mg/kg/injection, schedule: Q04DX003 (ip), vehicle: saline with Tween-80); 165 % of control (dose: 20.0 mg/kg/injection, schedule: Q04DX003 (ip), vehicle: saline with Tween-80); 122 % of control under setting [13]. Further, the T/C runs as follows: (dose: 25.0 mg/kg/injection, schedule: Q04DX003 (ip), vehicle: saline with Tween-80) 150 % of control; under setting [1], 90 % of control; (dose: 50.0 mg/kg/injection, schedule: Q04DX003 (ip), vehicle: saline with Tween-80) 116 % of control; (dose: 200.0 mg/kg/injection, schedule: Q04DX003 (ip), vehicle: saline with Tween-80) 118 % of control.
For `N=c1nc(N)nc2n1N=C(c1ccc(Cl)cc1)CS2`, the T/C runs as follows: under setting [7], 102 % of control; under setting [8], 92 % of control; under setting [9], 90 % of control.
With `CCCCCCCCSC1=CC(=O)C(OC)=C(OC)C1=O`, the T/C (dose: 4.0 mg/kg/injection, schedule: Q01DX009 (ip), vehicle: Klucel (hydroxypropylcellulose) (HPC)) was 92 % of control and the T/C (dose: 8.0 mg/kg/injection, schedule: Q01DX009 (ip), vehicle: Klucel (hydroxypropylcellulose) (HPC)) was 95 % of control.
